This is an account of results in patent US20220211692A1, “Modulators of the Cystic Fibrosis Transmembrane Conductance Regulator Protein and Methods of Use” (AbbVie Global Enterprises Ltd., priority 2021, published 2022).

The target in one assay is T1, F508del/F508del CFTR (Homo sapiens, UniProt P13569, DEL508-508).
T1 construct: cells isolated from CF patients with the homozygous mutation; endogenous in cells; host or cells: primary human bronchial epithelial (hBE) cells from CF patients homozygous for F508del
T1 sequence (P13569 with tags, fused parts or gaps DEL508-508): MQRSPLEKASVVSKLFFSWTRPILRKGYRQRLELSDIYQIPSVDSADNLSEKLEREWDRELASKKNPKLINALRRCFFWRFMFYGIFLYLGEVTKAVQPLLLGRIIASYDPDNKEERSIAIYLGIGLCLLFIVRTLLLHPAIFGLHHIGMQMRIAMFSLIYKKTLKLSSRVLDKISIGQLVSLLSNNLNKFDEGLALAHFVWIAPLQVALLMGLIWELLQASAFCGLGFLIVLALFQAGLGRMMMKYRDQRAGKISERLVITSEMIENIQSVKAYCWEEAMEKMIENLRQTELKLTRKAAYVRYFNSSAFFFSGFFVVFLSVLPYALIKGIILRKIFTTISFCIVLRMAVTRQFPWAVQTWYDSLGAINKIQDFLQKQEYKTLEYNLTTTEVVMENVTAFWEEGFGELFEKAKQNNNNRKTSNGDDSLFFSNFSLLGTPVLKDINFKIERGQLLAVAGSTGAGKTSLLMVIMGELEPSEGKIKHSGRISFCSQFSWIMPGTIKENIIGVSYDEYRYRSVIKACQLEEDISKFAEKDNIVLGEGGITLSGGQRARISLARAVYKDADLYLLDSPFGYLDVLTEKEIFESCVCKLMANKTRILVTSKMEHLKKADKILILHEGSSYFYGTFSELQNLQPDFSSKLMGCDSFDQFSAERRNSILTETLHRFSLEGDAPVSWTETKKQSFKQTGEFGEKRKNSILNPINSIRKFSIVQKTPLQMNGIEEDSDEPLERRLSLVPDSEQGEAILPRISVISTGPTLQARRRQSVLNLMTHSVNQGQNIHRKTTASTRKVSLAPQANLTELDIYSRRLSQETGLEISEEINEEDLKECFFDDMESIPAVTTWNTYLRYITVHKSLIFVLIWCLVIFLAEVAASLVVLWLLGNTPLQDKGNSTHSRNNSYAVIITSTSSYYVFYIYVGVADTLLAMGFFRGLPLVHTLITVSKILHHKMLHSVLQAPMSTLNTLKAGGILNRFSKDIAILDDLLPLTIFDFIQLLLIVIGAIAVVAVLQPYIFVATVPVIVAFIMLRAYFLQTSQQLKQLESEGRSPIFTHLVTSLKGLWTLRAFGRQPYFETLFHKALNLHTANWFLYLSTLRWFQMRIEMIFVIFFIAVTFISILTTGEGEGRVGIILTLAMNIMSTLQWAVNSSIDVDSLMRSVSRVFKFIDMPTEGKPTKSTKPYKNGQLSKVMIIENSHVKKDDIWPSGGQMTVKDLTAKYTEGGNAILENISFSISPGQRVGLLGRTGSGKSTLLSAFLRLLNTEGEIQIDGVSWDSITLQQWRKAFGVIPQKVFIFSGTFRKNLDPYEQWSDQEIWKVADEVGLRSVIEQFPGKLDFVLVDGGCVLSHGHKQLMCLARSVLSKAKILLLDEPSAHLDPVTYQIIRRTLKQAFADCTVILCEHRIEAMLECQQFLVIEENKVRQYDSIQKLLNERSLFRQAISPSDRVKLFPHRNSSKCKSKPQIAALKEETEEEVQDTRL
The experiment in a line: Trans-Epithelial Current Clamp (TECC) assay using primary human bronchial epithelial cells. The following applies: for Emax (% Dual): maximum percent activity relative to positive control (co-corrector 0.15 μM + potentiator 0.45 μM = 100%); for EC50: primary hBE cells F508del/F508del, test corrector with co-corrector and potentiator, 18-24 hours, equivalent CFTR current. The format is cell-based. The method, boiled down: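 F508del/F508del primary hBE cells grown 35 days at air-liquid interface were treated basolaterally with C2 correctors plus fixed co-corrector and potentiator for 18-24 h at 37° C. TECC-24 current clamp at 36.5° C in HEPES-buffered F-12 Coon's, pH 7.4; equivalent current IEQ=VT/RT, plus AUC between forskolin peak and bumetanide.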

The target of the next assay is T2, F508delCFTR (Homo sapiens, UniProt P13569, DEL508-508).
T2 construct: expressed in transfected cells; host or cells: CFBE41o- human lung derived epithelial cell line, doxycycline-induced expression
T2 sequence (P13569 with tags, fused parts or gaps DEL508-508): as above
Description: Cell Surface Expression-Horse Radish Peroxidase (CSE-HRP) assay in CFBE41o-F508delCFTR-HRP cells. The format is cell-based. The following applies: for EC50: CFBE41o-F508delCFTR-HRP cells, 18-24 hours at 33° C.; for Maximum % activity (with co-corrector) / Emax: normalized to on-plate positive control; for Emax: read-out: Maximum % activity (without co-corrector). The method, boiled down: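 Doxycycline (0.5 μg/mL) induced HRP-tagged F508delCFTR in CFBE41o- cells for 68-72 h at 37 °C; compounds ± co-corrector (2 μM) then ran 18-24 h at 33 °C, 8-point 3-fold series from 20 or 30 μM. After DPBS washes, surface HRP was read by luminol luminescence. Activity was normalised to the on-plate positive control versus DMSO, and EC50 was fitted by variable-slope sigmoid from triplicate plates.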

Setting [1] is: with co-corrector 2 μM, read-out: EC50 (with co-corrector).
[2] abbreviates: without co-corrector, read-out: EC50 (without co-corrector).

SMILES strings stand for the structures. Read-outs that look alike come from different tables or passages of the source.

For the compound `COc1ccc(C)cc1[C@@]1(C(=O)NS(=O)(=O)c2cccc3nc(C)ccc23)C[C@@H](OC)CO1` [Example 29, (2R,4R)-4-methoxy-2-(2-methoxy-5-methylphenyl)-N-(2-methylquinoline-5-sulfonyl)oxolane-2-carboxamide], the “Emax (% Dual)” value at F508del/F508del CFTR amounted to 230 % Dual. Further, the results for the EC50 on F508del/F508del CFTR, at F508delCFTR (setting [1]) and on F508delCFTR (setting [2]) were 164 nM, 1210 nM and 1860 nM, respectively. On F508delCFTR (with co-corrector 2 μM), the “Maximum % activity (with co-corrector)” value is listed as 587%. Further, the Emax on F508delCFTR (without co-corrector) stood at 213%.

As to `CCc1ccc(Oc2ccccc2)c(C2(C(=O)NS(=O)(=O)c3cccc4nc(C)ccc34)CCCO2)c1` (centres unmarked) [Example 17, 2-(5-ethyl-2-phenoxyphenyl)-N-(2-methylquinoline-5-sulfonyl)oxolane-2-carboxamide], the “Emax (% Dual)” value on F508del/F508del CFTR was 229 % Dual. Further, the half-maximal effective concentration (EC50) is 11.5 nM on F508del/F508del CFTR, 1560 nM at F508delCFTR (setting [1]) and 2660 nM on F508delCFTR (setting [2]). Further, at F508delCFTR (without co-corrector), the Emax came out at 931%.

`CCc1ccc(Oc2ccccc2)c([C@]2(C(=O)NS(=O)(=O)c3cccc4nc(C)ccc34)CCCO2)c1` [Example 22, (2S)-2-(5-ethyl-2-phenoxyphenyl)-N-(2-methylquinoline-5-sulfonyl)oxolane-2-carboxamide]: the “Emax (% Dual)” value at F508del/F508del CFTR is reported as 200 % Dual. Besides, the half-maximal effective concentration (EC50) came to 589 nM at F508del/F508del CFTR, 1140 nM at F508delCFTR (setting [1]) and 1950 nM on F508delCFTR (setting [2]). Also, the “Maximum % activity (with co-corrector)” value on F508delCFTR (with co-corrector 2 μM) came out at 673%. The Emax on F508delCFTR (without co-corrector) came out at 235%.

Regarding `COc1ccc(C)cc1[C@]1(C(=O)NS(=O)(=O)c2cccc3nc(C)ccc23)C[C@H](c2ccccc2)CO1` [Example 37, (2S,4R)-2-(2-methoxy-5-methylphenyl)-N-(2-methylquinoline-5-sulfonyl)-4-phenyloxolane-2-carboxamide], the “Emax (% Dual)” value at F508del/F508del CFTR stood at 305 % Dual. The EC50 at F508del/F508del CFTR is 38.3 nM; at F508delCFTR (setting [1]), 3210 nM; on F508delCFTR (setting [2]), 3630 nM. On F508delCFTR (with co-corrector 2 μM), the “Maximum % activity (with co-corrector)” value was determined as 573%. Besides, at F508delCFTR (without co-corrector), the Emax turned out to be 217%.

For the compound `COc1ccc(C)cc1[C@@]1(C(=O)NS(=O)(=O)c2cccc3nc(C)ccc23)CC(C)(C)CO1` [Example 5, (2R)-2-(2-methoxy-5-methylphenyl)-4,4-dimethyl-N-(2-methylquinoline-5-sulfonyl)oxolane-2-carboxamide], the “Emax (% Dual)” value on F508del/F508del CFTR amounted to 242 % Dual. Also, the half-maximal effective concentration (EC50) at F508del/F508del CFTR was found to be 7.8 nM; on F508delCFTR (setting [1]), 1210 nM; at F508delCFTR (setting [2]), 2270 nM.

As for `COc1ccccc1[C@@H]1CO[C@@](C(=O)NS(=O)(=O)c2cccc3nc(C)ccc23)(c2cc(C)ccc2OC)C1` [Example 39, (2R,4R)-2-(2-methoxy-5-methylphenyl)-4-(2-methoxyphenyl)-N-(2-methylquinoline-5-sulfonyl)oxolane-2-carboxamide], the “Emax (% Dual)” value at F508del/F508del CFTR was 239 % Dual. The EC50 at F508del/F508del CFTR came out at 26.1 nM; on F508delCFTR (setting [1]), 200 nM; at F508delCFTR (setting [2]), 470 nM. Moreover, the Emax at F508delCFTR (without co-corrector) stood at 470%.

As to `CCc1ccc(Oc2cccnc2OC(F)F)c(C2(C(=O)NS(=O)(=O)c3cccc4nc(C)ccc34)CCCO2)c1` (centres unmarked) [Example 21, 2-(2-{[2-(difluoromethoxy)pyridin-3-yl]oxy}-5-ethylphenyl)-N-(2-methylquinoline-5-sulfonyl)oxolane-2-carboxamide], the “Emax (% Dual)” value at F508del/F508del CFTR is 199 % Dual. Besides, the EC50 at F508del/F508del CFTR turned out to be 11.8 nM; at F508delCFTR (setting [1]) it was 1290 nM; on F508delCFTR (setting [2]), 1540 nM. The Emax at F508delCFTR (without co-corrector) stood at 857%.

In the case of `CCOc1ccc(CC)cc1[C@@]1(C(=O)NS(=O)(=O)c2cccc3nc(C)ccc23)CCCO1` [Example 9, (2R)-2-(2-ethoxy-5-ethylphenyl)-N-(2-methylquinoline-5-sulfonyl)oxolane-2-carboxamide], the “Emax (% Dual)” value at F508del/F508del CFTR came out at 256 % Dual. The values for the EC50 at F508del/F508del CFTR, on F508delCFTR (setting [1]) and on F508delCFTR (setting [2]) were 33.7 nM, 840 nM and 1650 nM, respectively. The Emax at F508delCFTR (without co-corrector) was determined as 865%.

Regarding `COc1ccc(C)cc1[C@@]1(C(=O)NS(=O)(=O)c2cccc3nc(N)ccc23)C[C@H](c2ccccc2)CO1` [Example 41, (2R,4R)—N-(2-aminoquinoline-5-sulfonyl)-2-(2-methoxy-5-methylphenyl)-4-phenyloxolane-2-carboxamide], the “Emax (% Dual)” value at F508del/F508del CFTR came out at 274 % Dual. The EC50 at F508del/F508del CFTR came to 19.4 nM; on F508delCFTR (setting [1]), 270 nM; at F508delCFTR (setting [2]) it was 760 nM. For the same compound, the Emax on F508delCFTR (without co-corrector) was determined as 872%.

Regarding `COc1ccc(C)cc1C1(C(=O)NS(=O)(=O)c2cccc3nc(C)ccc23)CCC(c2ccccc2)O1` (stereo in doubt) [Example 7, (2S,5S)-2-(2-methoxy-5-methylphenyl)-N-(2-methylquinoline-5-sulfonyl)-5-phenyloxolane-2-carboxamide], the “Emax (% Dual)” value on F508del/F508del CFTR is 283 % Dual. Moreover, the EC50 on F508del/F508del CFTR was 11.7 nM; at F508delCFTR (setting [1]), 330 nM; on F508delCFTR (setting [2]), 530 nM. For the same compound, the Emax at F508delCFTR (without co-corrector) came out at 509%.

For `CCc1ccc(OC[C@H](C)OC)c([C@]2(C(=O)NS(=O)(=O)c3cccc4nc(C)ccc34)CCCO2)c1` [Example 13, (2S)-2-{5-ethyl-2-[(2S)-2-methoxypropoxy]phenyl}-N-(2-methylquinoline-5-sulfonyl)oxolane-2-carboxamide], the “Emax (% Dual)” value at F508del/F508del CFTR is recorded as 119 % Dual. Besides, the figures for the EC50 at F508del/F508del CFTR, on F508delCFTR (setting [1]) and at F508delCFTR (setting [2]) were more than 300 nM, 4990 nM and 6490 nM, respectively. Further, the “Maximum % activity (with co-corrector)” value at F508delCFTR (with co-corrector 2 μM) is 399%. Also, on F508delCFTR (without co-corrector), the Emax is 122%.

In the case of `CCc1ccc(Oc2ccccc2)c([C@@]2(C(=O)NS(=O)(=O)c3cccc4nc(C)ccc34)CCCO2)c1` [Example 23, (2R)-2-(5-ethyl-2-phenoxyphenyl)-N-(2-methylquinoline-5-sulfonyl)oxolane-2-carboxamide], the “Emax (% Dual)” value at F508del/F508del CFTR worked out at 241 % Dual. For the same compound, the concentration for a half-maximal effect (EC50) on F508del/F508del CFTR was 20 nM; at F508delCFTR (setting [1]), 480 nM; at F508delCFTR (setting [2]), 1070 nM. Moreover, the Emax at F508delCFTR (without co-corrector) stood at 726%.

`CCc1ccc(OCC(C)OC)c([C@@]2(C(=O)NS(=O)(=O)c3cccc4nc(C)ccc34)CCCO2)c1` (stereo in doubt) [Example 14, (2R)-2-{5-ethyl-2-[(2S)-2-methoxypropoxy]phenyl}-N-(2-methylquinoline-5-sulfonyl)oxolane-2-carboxamide]: the “Emax (% Dual)” value on F508del/F508del CFTR came to 161 % Dual. For the same compound, the EC50 on F508del/F508del CFTR was found to be 244 nM; on F508delCFTR (setting [1]) it was 2540 nM; on F508delCFTR (setting [2]), 3490 nM. Also, the “Maximum % activity (with co-corrector)” value at F508delCFTR (with co-corrector 2 μM) amounted to 871%. Further, the Emax on F508delCFTR (without co-corrector) was found to be 334%.

In the case of `CCc1ccc(Oc2cccnc2OC(F)F)c([C@@]2(C(=O)NS(=O)(=O)c3cccc4nc(C)ccc34)CCCO2)c1` [Example 27, (2R)-2-(2-{[2-(difluoromethoxy)pyridin-3-yl]oxy}-5-ethylphenyl)-N-(2-methylquinoline-5-sulfonyl)oxolane-2-carboxamide], the “Emax (% Dual)” value on F508del/F508del CFTR is 212 % Dual. For the same compound, the concentration for a half-maximal effect (EC50) at F508del/F508del CFTR stood at 4.6 nM; on F508delCFTR (setting [1]) it was 650 nM; at F508delCFTR (setting [2]) it was 1470 nM. Also, the Emax at F508delCFTR (without co-corrector) came out at 709%.

Regarding `COc1ccc(C)cc1[C@@]1(C(=O)NS(=O)(=O)c2cccc3nc(C)ccc23)C[C@](C)(OC)CO1` [Example 30, (2R,4S)-4-methoxy-2-(2-methoxy-5-methylphenyl)-4-methyl-N-(2-methylquinoline-5-sulfonyl)oxolane-2-carboxamide], on F508del/F508del CFTR, the “Emax (% Dual)” value is listed as 197 % Dual and the EC50 is 331 nM. Moreover, the EC50 on F508delCFTR (setting [2]) is 2630 nM. Also, the Emax at F508delCFTR (without co-corrector) amounted to 301%.

Take `COc1ccc(C)cc1[C@]1(C(=O)NS(=O)(=O)c2cccc3nc(C)ccc23)C[C@@H](c2ccccc2)CO1` [Example 36, (2S,4S)-2-(2-methoxy-5-methylphenyl)-N-(2-methylquinoline-5-sulfonyl)-4-phenyloxolane-2-carboxamide]: on F508del/F508del CFTR, the “Emax (% Dual)” value was 255 % Dual. For the same compound, the EC50 on F508del/F508del CFTR worked out at 31 nM; on F508delCFTR (setting [1]), 810 nM; on F508delCFTR (setting [2]), 1590 nM. The Emax on F508delCFTR (without co-corrector) stood at 443%.

One may read the EC50 as the concentration at which the effect is half-maximal.
